In patent US7517910B2, “Alkoxyphenylpropanoic acid derivatives” (Takeda Pharmaceutical Company Limited, priority 2004, dated 2009):
pEC50: −log10 of the molar value. Structures can show the parent of a compound that is named as a salt.

biological target: T1, human GPR40 (Homo sapiens, UniProt O14842); assay: Determination of EC50 against human GPR40: change in intracellular calcium concentration by FLIPR in CHO cells stably expressing human GPR40; format: cell-based; conditions: CHO cell line stably expressing human GPR40; intracellular calcium change measured by FLIPR (Fluo3-AM); EC50 from dose-response curve; read-out: EC50 (receptor function modulating action on GPR40)
T1 construct: expressed in transfected cells; host or cells: CHO cell line stably expressing human GPR40
Protocol: Determination of EC50 of the compound of the present invention against human GPR40
For determination of EC50, CHO cell line that stably expressed human GPR40 was used. Unless otherwise indicated, the CHO cell line was cultured using α-MEM medium (Invitrogen) containing 10% fetal bovine serum (Invitrogen).
The cells cultured to nearly confluent were rinsed with PBS (Invitrogen) on the previous day of the assay, peeled off with 0.05% Trypsin.EDTA solution (Invitrogen) and recovered by centrifugation. The number of the obtained cells was counted, and the cells were diluted such that 3×10^5 cells were contained per 1 mL of the medium, dispensed to a black welled 96-well plate (coster) by 100 μL per well and cultured overnight in a CO2 incubator. Various test compounds were added to the CHO cells thus prepared, and the changes in the intracellular calcium concentration were measured using FLIPR (Molecular Device). The below-mentioned pre-treatment was applied to measure changes in the intracellular calcium concentration by FLIPR.
First, an assay buffer for adding a fluorescence dye Fluo3-AM (DOJIN) to the cells, or for washing the cells immediately before FLIPR assay was prepared. To a solution of HBSS (Invitrogen, 1000 mL) added 1 M HEPES (pH 7.4, DOJIN, 20 mL) (hereinafter HBSS/HEPES solution) was added a solution (10 mL) obtained by dissolving probenecid (Sigma, 710 mg) in 1 N NaOH (5 mL), and adding and mixing an HBSS/HEPES solution (5 mL), and the resulting solution was used as an assay buffer. Next, Fluo3-AM (50 μg) was dissolved in dimethyl sulfoxide (Wako, 21 μL), and an equivalent amount of 20% pluronic acid (Molecular Probes) was added and mixed. The solution was added to the assay buffer (10.6 mL) supplemented with fetal bovine serum (105 μL) to give a fluorescence dye solution. The medium of the CHO cells inoculated to the black welled 96-well plate on the previous day of assay was removed, the fluorescence dye solution was immediately dispensed by 100 μL per well and the cells were cultured in a CO2 incubator for 1 hr to allow intake of the fluorescence dye by the cells. The cells after the culture were washed with the above-mentioned assay buffer and set on FLIPR. The test compound was diluted with dimethylsulfoxide in advance, dispensed to a polypropylene 96-well plate (sample plate) by 2 μL, and cryopreserved at −20° C. To the thawed sample plate was added an assay buffer containing 0.015% CHAPS (DOJIN) by 198 μL, and simultaneously set on FLIPR together with the cell plate. After the aforementioned pre-treatment, changes in the intracellular calcium concentration upon addition of various test compounds was measured by FLIPR. Based on the results, a dose-response curve of each test compound was formed and EC50 was calculated.

T1 sequence (O14842 whole entry): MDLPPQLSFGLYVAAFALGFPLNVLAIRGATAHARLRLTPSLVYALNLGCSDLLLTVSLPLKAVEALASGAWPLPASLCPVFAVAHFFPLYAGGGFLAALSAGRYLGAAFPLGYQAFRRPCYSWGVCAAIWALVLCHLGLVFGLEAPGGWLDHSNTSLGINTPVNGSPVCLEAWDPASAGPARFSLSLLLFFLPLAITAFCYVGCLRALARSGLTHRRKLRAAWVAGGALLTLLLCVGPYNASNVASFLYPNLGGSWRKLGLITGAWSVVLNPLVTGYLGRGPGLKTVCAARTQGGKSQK

Row | SMILES | pEC50
1 | O=C(O)CCc1ccc(OCc2ccc(Cn3ccnc3-c3ccccc3)cc2)cc1 [Example 56, 3-[4-([4-[(2-phenyl-1H-imidazol-1-yl)methyl]benzyl]oxy)phenyl]propanoic acid] | > 6.00
2 | CC(C)COc1ccc(COc2ccc(CCC(=O)O)cc2)cc1CN1c2ccccc2CCC1C (centres unmarked) [Example 111, 3-[4-({4-isobutoxy-3-[(2-methyl-3,4-dihydroquinolin-1 (2H)-yl)methyl]benzyl}oxy)phenyl]propanoic acid] | > 6.00
3 | O=C(O)CCc1ccc(OCc2cccc(-c3ccc4c(ccn4Cc4ccccc4)c3)c2)cc1 [Example 20, 3-(4-([3-(1-benzyl-1H-indol-5-yl)benzyl]oxy}phenyl)propanoic acid] | > 7.00
4 | CC(C)(C)c1cc(OCc2ccccc2)n(Cc2ccc(COc3ccc(CCC(=O)O)c(F)c3)cc2)n1 [Example 133, 3-{4-[(4-([5-(benzyloxy)-3-tert-butyl-1H-pyrazol-1-yl]methyl)benzyl)oxy]-2-fluorophenyl}propanoic acid calcium salt] | > 7.00
5 | O=C(O)CCc1ccc(OCc2ccc(Cn3c(-c4ccccc4)cc4ccccc43)cc2)cc1 [Example 45, 3-[4-({4-[(2-phenyl-1H-indol-1-yl)methyl]benzyl}oxy)phenyl]propanoic acid] | > 7.00
6 | O=C(O)CCc1ccc(OCc2cccc(N3CCOC(c4ccccc4)C3)c2)cc1 (centres unmarked) [Example 29, 3-(4-{[3-(2-phenylmorpholin-4-yl)benzyl]oxy}phenyl)propanoic acid] | > 7.00
7 | Cc1cc2ccccc2n1-c1cccc(COc2ccc(CCC(=O)O)cc2)c1 [Example 24, 3-(4-{[3-(2-methyl-1H-indol-1-yl)benzyl]oxy}phenyl)propanoic acid] | > 8.00
8 | CC(C)COc1ccc(COc2ccc(CCC(=O)O)cc2)cc1Cn1c(-c2ccccc2)cc2ccccc21 [Example 60, 3-[4-({4-isobutoxy-3-[(2-phenyl-1H-indol-1-yl)methyl]benzyl)oxy)phenyl]propanoic acid] | > 7.00
9 | CC(C)(C)c1cc(COc2ccccc2)n(Cc2ccc(COc3ccc(CCC(=O)O)c(F)c3)cc2)n1 [Example 131, 3-{4-[(4-{[3-tert-butyl-5-(phenoxymethyl)-1H-pyrazol-1-yl]methyl}benzyl)oxy]-2-fluorophenyl}propanoic acid calcium salt] | > 7.00
10 | O=C(O)CCc1ccc(OCc2ccccc2-c2csc3ccccc23)cc1 [Example 10, 3-(4-{[2-(1-benzothiophen-3-yl)benzyl]oxy}phenyl)propanoic acid] | > 6.00
11 | CCOCCn1c(-c2ccccc2)c(-c2cccc(COc3ccc(CCC(=O)O)c(F)c3)c2)c2ccccc21 [Example 118, 3-[4-({3-[1-(2-ethoxyethyl)-2-phenyl-1H-indol-3-yl]benzyl}oxy)-2-fluorophenyl]propanoic acid] | > 7.00
12 | Cc1cccc(COc2cc(C(C)(C)C)nn2Cc2ccc(COc3ccc(CCC(=O)O)c(F)c3)cc2)n1 [Example 137, 3-(4-{[4-({3-tert-butyl-5-[(6-methylpyridin-2-yl)methoxy]-1H-pyrazol-1-yl}methyl)benzyl]oxy}-2-fluorophenyl)propanoic acid calcium salt] | > 7.00
13 | CC1CCc2ccccc2N1c1cccc(COc2ccc(CCC(=O)O)cc2)c1 (centres unmarked) [Example 40, 3-(4-{[3-(2-methyl-3,4-dihydroquinolin-1 (2H)-yl)benzyl]oxy}phenyl)propanoic acid] | > 8.00
14 | CC(C)(C)c1cc(-c2ccccc2)n(Cc2ccc(COc3ccc(CCC(=O)O)c(F)c3)cc2)n1 [Example 141, 3-[4-({4-[(3-tert-butyl-5-phenyl-1H-pyrazol-1-yl)methyl]benzyl)oxy)-2-fluorophenyl]propanoic acid] | > 7.00
15 | Cc1cc(-c2ccccc2)n(Cc2ccc(COc3ccc(CCC(=O)O)cc3)cc2)n1 [Example 112, 3-[4-([4-[(3-methyl-5-phenyl-1H-pyrazol-1-yl)methyl]benzyl}oxy)phenyl]propanoic acid] | > 7.00
16 | O=C(O)CCc1ccc(OCc2ccc(Cn3nc(-c4ccc(C(F)(F)F)cc4)cc3CCc3ccccc3)cc2)cc1 [Example 65, 3-(4-{[4-({5-(2-phenylethyl)-3-[4-(trifluoromethyl)phenyl]-1H-pyrazol-1-yl}methyl)benzyl]oxy}phenyl)propanoic acid] | > 6.00
17 | Cc1sc(C)c(-c2cccc(COc3ccc(CCC(=O)O)cc3)c2)c1C [Example 4, 3-(4-([3-(2,4,5-trimethyl-3-thienyl)benzyl]oxy}phenyl)propanoic acid] | > 8.00
